Measurements published in ChEMBL document CHEMBL1641405, “Click chemistry inspired one-pot synthesis of 1,4-disubstituted 1,2,3-triazoles and their Src kinase inhibitory activity” (Bioorg Med Chem Lett, 2011).

molecular target: Epidermal growth factor receptor (Homo sapiens, UniProt P00533); test: Inhibition of human EGFR
Sequence (P00533 whole entry): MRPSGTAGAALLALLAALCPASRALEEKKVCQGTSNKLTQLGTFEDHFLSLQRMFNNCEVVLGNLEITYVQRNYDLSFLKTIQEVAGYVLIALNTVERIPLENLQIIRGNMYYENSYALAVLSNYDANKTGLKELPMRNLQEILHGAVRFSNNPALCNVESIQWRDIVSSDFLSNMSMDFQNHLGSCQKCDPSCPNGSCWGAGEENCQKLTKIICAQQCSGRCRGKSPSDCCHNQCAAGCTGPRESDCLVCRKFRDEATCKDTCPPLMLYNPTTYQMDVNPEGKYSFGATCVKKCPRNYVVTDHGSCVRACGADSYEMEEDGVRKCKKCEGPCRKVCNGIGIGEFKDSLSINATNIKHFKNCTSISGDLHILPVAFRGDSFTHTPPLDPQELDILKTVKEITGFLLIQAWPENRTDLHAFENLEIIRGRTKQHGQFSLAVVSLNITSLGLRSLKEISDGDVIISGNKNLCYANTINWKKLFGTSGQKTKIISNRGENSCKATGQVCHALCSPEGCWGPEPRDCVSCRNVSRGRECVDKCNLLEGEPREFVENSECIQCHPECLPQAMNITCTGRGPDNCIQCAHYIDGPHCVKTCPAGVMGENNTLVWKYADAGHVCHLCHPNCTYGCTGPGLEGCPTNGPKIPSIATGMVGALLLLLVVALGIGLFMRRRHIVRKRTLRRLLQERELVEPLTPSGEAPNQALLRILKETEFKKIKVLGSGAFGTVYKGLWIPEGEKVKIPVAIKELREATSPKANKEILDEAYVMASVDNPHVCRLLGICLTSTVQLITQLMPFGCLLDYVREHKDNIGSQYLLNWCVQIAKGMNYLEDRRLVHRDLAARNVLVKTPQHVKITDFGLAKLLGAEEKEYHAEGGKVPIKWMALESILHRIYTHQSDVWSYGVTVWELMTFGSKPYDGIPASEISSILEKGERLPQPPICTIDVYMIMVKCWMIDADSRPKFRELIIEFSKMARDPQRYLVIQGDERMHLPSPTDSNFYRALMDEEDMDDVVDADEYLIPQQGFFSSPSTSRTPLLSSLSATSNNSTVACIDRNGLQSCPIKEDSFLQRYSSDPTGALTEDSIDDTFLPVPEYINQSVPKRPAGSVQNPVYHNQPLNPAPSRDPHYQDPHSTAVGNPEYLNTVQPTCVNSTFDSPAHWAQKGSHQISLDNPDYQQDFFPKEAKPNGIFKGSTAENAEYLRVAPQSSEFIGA

Compound	IC50
Cc1ccc(-c2cn(C3CCCCC3=O)nn2)cc1 (configuration not stated)	> 100 µM

molecular target: T1, Proto-oncogene tyrosine-protein kinase Src (Homo sapiens, UniProt P12931); test: Inhibition of c-Src after 60 mins
T1 sequence (P12931 2-536 limits assumed): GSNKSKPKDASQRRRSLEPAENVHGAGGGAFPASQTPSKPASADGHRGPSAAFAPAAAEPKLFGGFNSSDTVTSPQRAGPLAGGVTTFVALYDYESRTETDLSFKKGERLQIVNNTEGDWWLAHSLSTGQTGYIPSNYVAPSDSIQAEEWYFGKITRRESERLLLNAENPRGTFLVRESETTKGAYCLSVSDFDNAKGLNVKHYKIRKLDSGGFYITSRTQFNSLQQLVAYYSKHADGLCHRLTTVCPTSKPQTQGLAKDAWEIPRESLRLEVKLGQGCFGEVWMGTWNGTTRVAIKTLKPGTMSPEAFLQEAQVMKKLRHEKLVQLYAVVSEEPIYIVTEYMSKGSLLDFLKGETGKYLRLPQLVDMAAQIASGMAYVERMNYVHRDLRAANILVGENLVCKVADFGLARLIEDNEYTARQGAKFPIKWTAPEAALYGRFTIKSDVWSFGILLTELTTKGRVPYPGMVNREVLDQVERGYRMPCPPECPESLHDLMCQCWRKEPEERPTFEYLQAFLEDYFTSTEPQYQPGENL

Compound	IC50
Cc1cc(-c2cn(CC(=O)c3ccccc3)nn2)ccc1F	81 µM
Cc1ccc(-c2cn(C3CCCCC3=O)nn2)cc1 (configuration not stated)	33.9 µM
Cc1ccc(-c2cn(CC(=O)c3ccccc3)nn2)cc1	41.6 µM
O=C(Cn1cc(-c2ccccc2)nn1)c1cccs1	32.5 µM
O=C(/C=C/c1ccccc1)Cn1cc(-c2ccccc2)nn1	> 100 µM
Cc1ccc(-c2cn(C3CCCCCC3=O)nn2)cc1 (configuration not stated)	66.1 µM
Cc1ccc(-c2cn(CC(=O)c3ccc(Cl)cc3)nn2)cc1	109 µM
O=C1CCCCC1n1cc(-c2ccccc2)nn1 (configuration not stated)	43.2 µM
COC(=O)Cn1cc(-c2ccccc2)nn1	> 100 µM
COc1ccc(C(=O)Cn2cc(-c3cccc(C)c3)nn2)cc1	72.8 µM
O=C(Cn1cc(-c2ccccc2)nn1)c1ccc(Cl)cc1	139 µM
O=C(Cn1cc(-c2ccccc2)nn1)c1ccccc1	> 100 µM
CC(=O)Cn1cc(-c2ccccc2)nn1	> 150 µM
O=C(Cn1cc(-c2ccsc2)nn1)c1ccc(Cl)cc1	> 150 µM
O=C1CCCC1n1cc(-c2ccccc2)nn1 (configuration not stated)	106 µM
CC(=O)Cn1cc(-c2ccc(C)cc2)nn1	> 150 µM
Cc1ccc(-c2cn(C3CCCC3=O)nn2)cc1 (configuration not stated)	62.1 µM
O=C(Cn1cc(-c2ccccc2)nn1)c1ccc(-c2cc3ccccc3oc2=O)cc1	89.5 µM
Cc1ccc(C(=O)Cn2cc(-c3ccc(F)c(C)c3)nn2)cc1	82.3 µM
O=C(Cn1cc(CCCCCl)nn1)c1ccc(Br)cc1	> 100 µM
Cc1ccc(-c2cn(CC(=O)c3cc4ccccc4oc3=O)nn2)cc1	> 150 µM
Cc1ccc(C(=O)Cn2cc(-c3ccc(C)cc3)nn2)cc1	49.8 µM
CCNC(=O)Cn1cc(-c2ccccc2)nn1	> 150 µM
COc1ccc(C(=O)Cn2cc(-c3ccccc3)nn2)cc1	> 100 µM

molecular target: Tyrosine-protein kinase CSK (Homo sapiens) (UniProt P41240); test: Inhibition of human Cck
Sequence (P41240 whole entry, looked up): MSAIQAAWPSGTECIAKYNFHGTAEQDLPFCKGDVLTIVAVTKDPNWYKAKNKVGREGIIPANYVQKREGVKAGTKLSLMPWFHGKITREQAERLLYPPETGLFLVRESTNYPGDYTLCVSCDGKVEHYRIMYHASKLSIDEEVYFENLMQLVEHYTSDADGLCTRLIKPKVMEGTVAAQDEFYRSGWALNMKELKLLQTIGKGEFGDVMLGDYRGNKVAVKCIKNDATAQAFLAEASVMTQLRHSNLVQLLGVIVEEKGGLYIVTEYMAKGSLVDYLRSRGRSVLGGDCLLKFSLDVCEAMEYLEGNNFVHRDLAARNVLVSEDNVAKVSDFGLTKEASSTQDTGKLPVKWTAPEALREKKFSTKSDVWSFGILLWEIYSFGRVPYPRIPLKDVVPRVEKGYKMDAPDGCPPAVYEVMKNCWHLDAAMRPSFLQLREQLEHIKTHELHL

Compound	IC50
Cc1ccc(-c2cn(C3CCCCC3=O)nn2)cc1 (configuration not stated)	> 100 µM

molecular target: T1, Proto-oncogene tyrosine-protein kinase Src; test: Inhibition of c-Src at 75 uM after 60 mins

Compound	inhibition
COc1ccc(-c2cn(C3CCCC3=O)nn2)cc1 (configuration not stated)	< 10%
CCCCc1cn(CC(=O)c2ccccc2)nn1	< 10%
CCCCc1cn(CC(=O)c2ccc(Br)cc2)nn1	< 10%
O=C(Cn1cc(-c2ccccn2)nn1)c1ccccc1	< 10%
O=C1CCCCC1n1cc(-c2ccsc2)nn1 (configuration not stated)	< 10%
O=C1CCCCC1n1cc(-c2ccc(F)cc2)nn1 (configuration not stated)	< 10%
Cc1ccc(-c2cn(CC(=O)c3ccc(Br)cc3)nn2)cc1	< 10%
O=C1CCCC1n1cc(-c2ccsc2)nn1 (configuration not stated)	< 10%
O=C1CCCC(n2cc(-c3ccccc3)nn2)C1 (configuration not stated)	< 10%
O=C(Cn1cc(-c2ccc(F)cc2)nn1)c1ccc(Br)cc1	< 10%
O=C1CCCC1n1cc(-c2ccc(F)cc2)nn1 (configuration not stated)	< 10%
O=C1CCC(n2cc(-c3ccccc3)nn2)C1 (configuration not stated)	< 10%
COc1ccc(-c2cn(C3CCCCC3=O)nn2)cc1 (configuration not stated)	< 10%
COc1ccc(-c2cn(CC(=O)c3ccc(Cl)cc3)nn2)cc1	< 10%
O=C(Cn1cc(-c2ccc(F)cc2)nn1)c1ccc(Cl)cc1	< 10%

molecular target: Tyrosine-protein kinase Lck (Homo sapiens, UniProt P06239); test: Inhibition of human activated Lck
Sequence (P06239 whole entry): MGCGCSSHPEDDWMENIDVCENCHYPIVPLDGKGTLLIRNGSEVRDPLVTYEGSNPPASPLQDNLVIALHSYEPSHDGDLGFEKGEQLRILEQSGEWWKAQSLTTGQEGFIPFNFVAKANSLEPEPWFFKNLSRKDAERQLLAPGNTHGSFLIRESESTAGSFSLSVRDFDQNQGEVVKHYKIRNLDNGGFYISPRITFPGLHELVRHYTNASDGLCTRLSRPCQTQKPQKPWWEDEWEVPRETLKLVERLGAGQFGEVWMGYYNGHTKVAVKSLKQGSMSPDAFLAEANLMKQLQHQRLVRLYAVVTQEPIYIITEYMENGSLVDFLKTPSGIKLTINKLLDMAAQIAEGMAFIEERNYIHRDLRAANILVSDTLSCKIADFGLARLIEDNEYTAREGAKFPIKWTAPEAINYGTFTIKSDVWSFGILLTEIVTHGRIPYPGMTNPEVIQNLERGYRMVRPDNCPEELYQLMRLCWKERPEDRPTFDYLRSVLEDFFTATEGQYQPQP

Compound	IC50
Cc1ccc(-c2cn(C3CCCCC3=O)nn2)cc1 (configuration not stated)	> 100 µM
